Consider ten compounds from BindingDB's records for doi:10.1016/j.bmcl.2005.11.092 (Astrazeneca R&D, 2006).

The term IC50 denotes the concentration needed to halve the response being measured.

The target of the experiment is Metabotropic glutamate receptor 5 (Homo sapiens, UniProt P41594). The experiment can be described thus: Inhibition of glutamate-induced calcium influx in human mGluR5d by FLIPR.

SMILES strings stand for the structures.

Sequence of Metabotropic glutamate receptor 5 (P41594 whole entry): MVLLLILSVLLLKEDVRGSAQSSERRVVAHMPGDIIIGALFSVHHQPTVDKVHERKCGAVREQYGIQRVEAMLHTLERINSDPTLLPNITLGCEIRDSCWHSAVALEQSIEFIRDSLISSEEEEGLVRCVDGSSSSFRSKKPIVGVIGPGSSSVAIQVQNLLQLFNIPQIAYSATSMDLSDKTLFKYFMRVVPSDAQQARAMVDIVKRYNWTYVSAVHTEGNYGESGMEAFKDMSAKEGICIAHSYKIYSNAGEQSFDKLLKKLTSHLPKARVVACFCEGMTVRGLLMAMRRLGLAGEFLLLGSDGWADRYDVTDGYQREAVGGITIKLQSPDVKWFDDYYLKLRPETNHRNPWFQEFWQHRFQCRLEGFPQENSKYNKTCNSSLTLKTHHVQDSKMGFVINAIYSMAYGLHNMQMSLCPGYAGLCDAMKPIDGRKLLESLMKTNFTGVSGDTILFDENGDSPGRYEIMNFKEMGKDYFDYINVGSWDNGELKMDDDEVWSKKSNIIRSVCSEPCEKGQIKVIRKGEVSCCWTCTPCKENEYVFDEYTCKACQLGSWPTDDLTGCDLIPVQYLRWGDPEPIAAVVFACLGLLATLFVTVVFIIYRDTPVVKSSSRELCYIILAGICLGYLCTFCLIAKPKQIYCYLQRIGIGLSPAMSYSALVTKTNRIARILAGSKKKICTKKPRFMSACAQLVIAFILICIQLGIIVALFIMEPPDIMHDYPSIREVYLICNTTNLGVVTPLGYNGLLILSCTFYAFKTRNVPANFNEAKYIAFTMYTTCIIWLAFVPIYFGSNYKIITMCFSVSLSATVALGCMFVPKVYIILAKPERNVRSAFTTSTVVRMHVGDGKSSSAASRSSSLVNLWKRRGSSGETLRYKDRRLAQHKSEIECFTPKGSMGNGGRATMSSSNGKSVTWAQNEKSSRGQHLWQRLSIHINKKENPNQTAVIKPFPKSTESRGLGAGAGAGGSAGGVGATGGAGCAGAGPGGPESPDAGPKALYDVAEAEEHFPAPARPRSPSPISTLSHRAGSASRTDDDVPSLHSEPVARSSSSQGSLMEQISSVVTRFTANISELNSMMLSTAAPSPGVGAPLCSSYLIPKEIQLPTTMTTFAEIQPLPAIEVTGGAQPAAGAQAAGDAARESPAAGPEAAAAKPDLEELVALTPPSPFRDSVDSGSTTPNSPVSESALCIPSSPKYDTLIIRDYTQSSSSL

For the compound `Cc1ccc(C)c(NC(=O)Nc2nc(O)c3n2CCC3)c1` [1-(2,5-dimethylphenyl)-3-(1-oxo-hexahydropyrrolo[1,2-e]imidazol-3-ylidene)urea], the half-maximal inhibitory concentration (IC50) was > 10 µM.
On to `Cn1cc(O)nc1NC(=O)Nc1cc(Cl)cc(Cl)c1` [1-(3,5-dichlorophenyl)-3-(1-methyl-4-oxoimidazolidin-2-ylidene)urea], for which the concentration for half-maximal inhibition (IC50) is > 10 µM.
Regarding `Cc1ccccc1NC(=O)Nc1nc(O)c2n1CCC2` [1-(1-oxo-hexahydropyrrolo[1,2-e]imidazol-3-ylidene)-3-o-tolylurea], the concentration for half-maximal inhibition (IC50) is > 10 µM.
For `Cn1cc(O)nc1NC(=O)Nc1cccs1` [1-(1-methyl-4-oxoimidazolidin-2-ylidene)-3-(thiophen-2-yl)urea], the half-inhibitory concentration (IC50) stood at 4.9 µM.
Regarding `Cc1cccc(NC(=O)Nc2nc(O)c3n2CCC3)c1C` [1-(2,3-dimethylphenyl)-3-(1-oxo-hexahydropyrrolo[1,2-e]imidazol-3-ylidene)urea], the IC50 is > 10 µM.
As for `O=C(Nc1ccc(Cl)cc1)Nc1nc(O)c2n1CCC2` [1-(4-chlorophenyl)-3-(1-oxo-hexahydropyrrolo[1,2-e]imidazol-3-ylidene)urea], the IC50 was > 10 µM.
Regarding `Cc1ccc(NC(=O)Nc2nc(O)c3n2CCC3)cc1Cl` [1-(3-chloro-4-methylphenyl)-3-(1-oxo-hexahydropyrrolo[1,2-e]imidazol-3-ylidene)urea], the concentration for half-maximal inhibition (IC50) was > 10 µM.
Take `Cn1cc(O)nc1NC(=O)Nc1ccccc1` [(E)-1-(1-methyl-4-oxoimidazolidin-2-ylidene)-3-phenylurea]: the IC50 was 4.9 µM.
Turning to `CCCCCCNC(=O)Nc1nc(O)cn1C` [1-hexyl-3-(1-methyl-4-oxoimidazolidin-2-ylidene)urea], the IC50 was > 10 µM.
With `COC(=O)c1cccc(NC(=O)Nc2nc(O)cn2C)c1` [methyl 3-(3-(1-methyl-4-oxoimidazolidin-2-ylidene)ureido)benzoate], the IC50 was > 10 µM.
